# Data reported in paper PMC4407307 (Journal of Biomedical Science, 2015).
# Biological target: SHV-128 (Enterobacter cloacae, UniProt D5LIR5)
# Experiment: biochemical
# SHV-128, sequence (D5LIR5 entry or part of it): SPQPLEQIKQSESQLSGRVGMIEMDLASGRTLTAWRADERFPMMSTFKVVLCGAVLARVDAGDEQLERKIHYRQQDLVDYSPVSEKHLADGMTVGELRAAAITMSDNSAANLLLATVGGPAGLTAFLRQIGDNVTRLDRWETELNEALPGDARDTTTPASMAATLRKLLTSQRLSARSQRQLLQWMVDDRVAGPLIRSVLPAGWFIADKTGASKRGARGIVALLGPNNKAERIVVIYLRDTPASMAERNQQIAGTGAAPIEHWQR
structure (smiles),measurement,value
O=C(O)[C@H]1/C(=C/CO)O[C@@H]2CC(=O)N21 [clavulanic acid],IC50,4.2 µM
